Results from PMC4770715, “LIM kinase inhibitors disrupt mitotic microtubule organization and impair tumor cell proliferation” (Oncotarget, 2015).

Tests used:
Test in all cases: biochemical
Design in all cases: KINOMEscan active-site competition binding, percent of control (100 = no competition)
Conditions in all cases: competition binding, percent control
[1] = target: CDKL2 (Homo sapiens, UniProt Q92772)
[2] = target: FLT3(D835H) (Homo sapiens, UniProt P36888, D835H)
[3] = target: T1, CDC2L1 (Homo sapiens, UniProt P21127)
T1 construct: gene CDK11B

[4] = target: T2, ABL1(H396P)-phosphorylated (Homo sapiens, UniProt P00519, H396P)
T2 construct: phosphorylated

[5] = target: T3, JAK2(JH1domain-catalytic) (Homo sapiens, UniProt O60674)
T3 construct: JH1domain-catalytic

[6] = target: CSNK1A1L (Homo sapiens, UniProt Q8N752)
[7] = target: KIT(V559D,T670I) (Homo sapiens, UniProt P10721, T670I/V559D)
[8] = target: TLK1 (Homo sapiens, UniProt Q9UKI8)
[9] = target: T4, MST4 (Homo sapiens, UniProt Q9P289)
T4 construct: gene STK26

[10] = target: T5, RSK2(Kin.Dom.1-N-terminal) (Homo sapiens, UniProt P51812)
T5 construct: gene RPS6KA3; Kin.Dom.1-N-terminal

[11] = target: PAK1 (Homo sapiens, UniProt Q13153)
[12] = target: T6, IKK-epsilon (Homo sapiens, UniProt Q14164)
T6 construct: gene IKBKE

[13] = target: TNK1 (Homo sapiens, UniProt Q13470)
[14] = target: GRK7 (Homo sapiens, UniProt Q8WTQ7)
[15] = target: FGFR2 (Homo sapiens, UniProt P21802)
[16] = target: BTK (Homo sapiens, UniProt Q06187)
[17] = target: EIF2AK1 (Homo sapiens, UniProt Q9BQI3)
[18] = target: T7, MRCKB (Homo sapiens, UniProt Q9Y5S2)
T7 construct: gene CDC42BPB

[19] = target: T8, LKB1 (Homo sapiens, UniProt Q15831)
T8 construct: gene STK11

[20] = target: FLT3 (Homo sapiens, UniProt P36888)
[21] = target: T9, TYK2(JH1domain-catalytic) (Homo sapiens, UniProt P29597)
T9 construct: JH1domain-catalytic

[22] = target: KIT(D816H) (Homo sapiens, UniProt P10721, D816H)
KIT(D816H), sequence (P10721 whole entry D816H): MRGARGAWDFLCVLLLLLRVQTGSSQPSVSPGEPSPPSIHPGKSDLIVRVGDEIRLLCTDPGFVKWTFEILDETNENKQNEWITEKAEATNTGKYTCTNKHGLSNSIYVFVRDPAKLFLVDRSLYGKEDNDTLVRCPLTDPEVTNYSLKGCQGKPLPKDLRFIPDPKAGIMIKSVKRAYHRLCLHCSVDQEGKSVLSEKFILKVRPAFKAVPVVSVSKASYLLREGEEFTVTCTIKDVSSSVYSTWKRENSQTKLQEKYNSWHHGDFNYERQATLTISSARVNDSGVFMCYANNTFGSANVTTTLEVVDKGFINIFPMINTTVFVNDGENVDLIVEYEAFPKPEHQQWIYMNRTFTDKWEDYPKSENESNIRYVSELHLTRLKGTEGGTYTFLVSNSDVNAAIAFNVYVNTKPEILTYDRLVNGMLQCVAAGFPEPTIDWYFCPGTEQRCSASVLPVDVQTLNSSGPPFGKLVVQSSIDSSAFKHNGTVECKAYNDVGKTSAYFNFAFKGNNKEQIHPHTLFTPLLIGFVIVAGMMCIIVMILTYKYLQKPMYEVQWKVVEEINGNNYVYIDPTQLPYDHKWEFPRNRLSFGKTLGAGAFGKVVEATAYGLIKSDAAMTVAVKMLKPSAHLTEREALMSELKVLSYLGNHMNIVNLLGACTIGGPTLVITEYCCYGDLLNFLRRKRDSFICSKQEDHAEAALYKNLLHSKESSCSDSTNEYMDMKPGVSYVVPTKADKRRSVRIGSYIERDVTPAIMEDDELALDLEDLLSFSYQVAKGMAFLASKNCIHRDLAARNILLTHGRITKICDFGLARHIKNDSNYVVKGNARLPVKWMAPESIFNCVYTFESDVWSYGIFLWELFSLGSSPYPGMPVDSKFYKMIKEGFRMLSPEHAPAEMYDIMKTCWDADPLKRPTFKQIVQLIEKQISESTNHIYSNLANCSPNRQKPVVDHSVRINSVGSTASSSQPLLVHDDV

T1 sequence (P21127 whole entry): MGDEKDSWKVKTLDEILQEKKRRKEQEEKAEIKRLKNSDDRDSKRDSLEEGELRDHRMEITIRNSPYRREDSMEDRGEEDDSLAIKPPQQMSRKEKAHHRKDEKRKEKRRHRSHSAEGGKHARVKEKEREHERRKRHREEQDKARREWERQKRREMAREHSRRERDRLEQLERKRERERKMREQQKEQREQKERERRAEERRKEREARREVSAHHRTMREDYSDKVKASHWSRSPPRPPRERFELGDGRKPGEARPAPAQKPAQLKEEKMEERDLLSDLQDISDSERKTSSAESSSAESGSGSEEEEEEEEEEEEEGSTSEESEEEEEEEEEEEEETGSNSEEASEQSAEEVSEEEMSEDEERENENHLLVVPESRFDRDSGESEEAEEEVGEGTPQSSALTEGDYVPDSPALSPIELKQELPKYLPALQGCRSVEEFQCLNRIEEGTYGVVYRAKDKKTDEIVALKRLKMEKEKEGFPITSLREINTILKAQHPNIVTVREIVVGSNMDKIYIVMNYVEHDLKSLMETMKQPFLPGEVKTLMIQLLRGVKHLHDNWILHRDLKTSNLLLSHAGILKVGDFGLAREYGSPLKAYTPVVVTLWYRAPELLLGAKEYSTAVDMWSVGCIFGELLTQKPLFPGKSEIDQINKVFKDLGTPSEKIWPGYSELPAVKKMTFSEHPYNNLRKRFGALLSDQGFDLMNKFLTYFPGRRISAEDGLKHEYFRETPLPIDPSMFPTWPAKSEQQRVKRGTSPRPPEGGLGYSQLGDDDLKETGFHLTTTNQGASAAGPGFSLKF
T4 sequence (Q9P289 whole entry): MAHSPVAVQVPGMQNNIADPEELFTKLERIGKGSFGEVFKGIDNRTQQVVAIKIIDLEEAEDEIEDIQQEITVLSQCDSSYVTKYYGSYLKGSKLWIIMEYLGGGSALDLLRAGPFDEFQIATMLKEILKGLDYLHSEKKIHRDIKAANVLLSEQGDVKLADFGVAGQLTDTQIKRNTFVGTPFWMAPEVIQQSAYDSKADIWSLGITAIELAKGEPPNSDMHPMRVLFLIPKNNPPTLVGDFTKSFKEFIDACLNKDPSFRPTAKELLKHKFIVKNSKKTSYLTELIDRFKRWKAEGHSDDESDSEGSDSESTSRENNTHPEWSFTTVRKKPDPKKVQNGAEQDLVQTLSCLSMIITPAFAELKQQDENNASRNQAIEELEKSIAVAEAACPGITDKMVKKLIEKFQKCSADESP
KIT(V559D,T670I), sequence (P10721 whole entry V559D/T670I): as the sequence (P10721 whole entry D816H) above, with V559D, T670I, H816D counted along it
CDKL2, sequence (Q92772 whole entry): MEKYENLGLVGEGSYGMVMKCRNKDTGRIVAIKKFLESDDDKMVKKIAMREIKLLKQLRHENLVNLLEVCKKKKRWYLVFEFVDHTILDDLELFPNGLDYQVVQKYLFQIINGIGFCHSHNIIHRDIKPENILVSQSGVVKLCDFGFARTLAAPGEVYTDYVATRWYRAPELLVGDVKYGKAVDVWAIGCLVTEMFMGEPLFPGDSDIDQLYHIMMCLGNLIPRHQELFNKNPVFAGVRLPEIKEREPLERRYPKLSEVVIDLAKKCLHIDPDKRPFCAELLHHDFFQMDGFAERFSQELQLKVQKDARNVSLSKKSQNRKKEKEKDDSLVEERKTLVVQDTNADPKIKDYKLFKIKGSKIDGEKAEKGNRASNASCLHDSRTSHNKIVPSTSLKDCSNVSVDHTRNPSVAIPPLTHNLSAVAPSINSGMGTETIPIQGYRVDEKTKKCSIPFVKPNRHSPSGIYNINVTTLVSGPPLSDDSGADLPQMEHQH
T3 sequence (O60674 whole entry): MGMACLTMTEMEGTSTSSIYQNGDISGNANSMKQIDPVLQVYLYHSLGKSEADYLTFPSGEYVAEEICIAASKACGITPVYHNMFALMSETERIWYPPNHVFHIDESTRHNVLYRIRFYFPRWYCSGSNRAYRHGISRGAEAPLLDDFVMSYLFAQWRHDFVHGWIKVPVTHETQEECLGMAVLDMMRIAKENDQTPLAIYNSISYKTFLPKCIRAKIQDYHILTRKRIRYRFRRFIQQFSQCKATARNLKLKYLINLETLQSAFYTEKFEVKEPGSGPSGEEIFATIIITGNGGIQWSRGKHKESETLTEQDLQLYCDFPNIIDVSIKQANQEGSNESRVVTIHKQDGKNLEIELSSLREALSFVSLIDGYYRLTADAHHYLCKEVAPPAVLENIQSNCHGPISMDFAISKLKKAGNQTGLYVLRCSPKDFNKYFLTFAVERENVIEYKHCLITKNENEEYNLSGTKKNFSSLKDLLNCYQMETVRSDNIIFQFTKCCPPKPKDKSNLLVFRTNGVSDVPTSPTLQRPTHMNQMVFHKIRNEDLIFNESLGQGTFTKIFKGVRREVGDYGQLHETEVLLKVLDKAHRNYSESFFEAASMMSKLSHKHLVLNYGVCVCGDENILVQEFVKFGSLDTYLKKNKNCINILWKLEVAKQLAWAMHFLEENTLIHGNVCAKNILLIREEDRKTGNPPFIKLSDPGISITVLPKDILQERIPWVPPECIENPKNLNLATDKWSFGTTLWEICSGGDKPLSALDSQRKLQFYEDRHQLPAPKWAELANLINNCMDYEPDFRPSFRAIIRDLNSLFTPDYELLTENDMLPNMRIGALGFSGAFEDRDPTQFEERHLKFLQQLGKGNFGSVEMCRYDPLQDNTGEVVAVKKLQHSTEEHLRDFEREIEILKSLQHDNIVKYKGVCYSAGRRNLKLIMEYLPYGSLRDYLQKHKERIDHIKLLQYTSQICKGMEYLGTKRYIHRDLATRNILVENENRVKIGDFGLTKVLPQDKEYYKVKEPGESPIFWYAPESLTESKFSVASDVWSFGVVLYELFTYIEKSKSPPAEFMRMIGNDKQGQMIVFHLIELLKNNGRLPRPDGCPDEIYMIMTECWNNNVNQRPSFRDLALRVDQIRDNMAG
FGFR2, sequence (P21802 whole entry): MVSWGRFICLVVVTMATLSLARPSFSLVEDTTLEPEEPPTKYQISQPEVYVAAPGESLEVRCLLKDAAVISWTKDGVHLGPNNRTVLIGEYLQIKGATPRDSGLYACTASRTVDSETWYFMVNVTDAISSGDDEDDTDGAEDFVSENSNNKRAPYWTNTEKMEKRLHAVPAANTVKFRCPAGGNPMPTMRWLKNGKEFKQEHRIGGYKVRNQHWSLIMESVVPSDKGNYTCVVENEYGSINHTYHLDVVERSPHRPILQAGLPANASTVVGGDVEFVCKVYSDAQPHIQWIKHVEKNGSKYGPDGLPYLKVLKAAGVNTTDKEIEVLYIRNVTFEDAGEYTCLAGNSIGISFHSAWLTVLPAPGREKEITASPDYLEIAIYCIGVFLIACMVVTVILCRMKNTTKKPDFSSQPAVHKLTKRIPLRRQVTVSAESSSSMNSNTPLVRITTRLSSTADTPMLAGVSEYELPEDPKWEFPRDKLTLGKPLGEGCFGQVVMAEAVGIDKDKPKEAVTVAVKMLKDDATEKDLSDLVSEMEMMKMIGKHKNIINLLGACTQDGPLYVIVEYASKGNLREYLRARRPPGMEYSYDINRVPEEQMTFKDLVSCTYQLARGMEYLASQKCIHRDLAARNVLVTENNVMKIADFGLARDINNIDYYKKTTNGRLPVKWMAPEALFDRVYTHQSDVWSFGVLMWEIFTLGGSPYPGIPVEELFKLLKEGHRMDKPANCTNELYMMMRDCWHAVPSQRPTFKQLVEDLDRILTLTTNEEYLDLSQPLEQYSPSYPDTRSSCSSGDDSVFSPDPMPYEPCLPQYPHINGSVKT
CSNK1A1L, sequence (Q8N752 whole entry): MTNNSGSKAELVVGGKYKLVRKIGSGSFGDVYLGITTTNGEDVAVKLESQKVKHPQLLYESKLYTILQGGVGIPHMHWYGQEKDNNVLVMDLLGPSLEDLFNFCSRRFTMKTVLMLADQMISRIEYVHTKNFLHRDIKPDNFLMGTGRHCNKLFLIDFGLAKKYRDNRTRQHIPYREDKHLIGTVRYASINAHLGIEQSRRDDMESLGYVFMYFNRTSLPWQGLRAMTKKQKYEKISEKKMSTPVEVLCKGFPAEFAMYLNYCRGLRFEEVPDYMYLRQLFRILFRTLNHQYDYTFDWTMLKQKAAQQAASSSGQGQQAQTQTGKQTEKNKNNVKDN

In the case of `COc1ccc(-c2cnccc2-c2cnc(NC(=O)C(C)C)s2)c(C(F)(F)F)c1` [CRT0105446, N-{5-[3-(4-Methoxy-2-trifluoromethyl-phenyl)-pyridin-4-yl]-hiazol-2-yl}-isobutyramide], the remaining binding at 10 µM [1] is reported as 2.2%, the remaining binding at 10 µM [2] is reported as 15% and the remaining binding at 10 µM [3] is reported as 54%. The remaining binding at 10 µM [4] was 82%, the remaining binding at 10 µM [5] was 100% and the remaining binding at 10 µM [6] was 96%. For the same compound, the remaining binding at 10 µM [7] was 74%, the remaining binding at 10 µM [8] was 100% and the remaining binding at 10 µM [9] was 61%. For the same compound, the remaining binding at 10 µM [10] was 37%, the remaining binding at 10 µM [11] was 57% and the remaining binding at 10 µM [12] was 85%. For the same compound, the remaining binding at 10 µM [13] was 67%, the remaining binding at 10 µM [14] was 58% and the remaining binding at 10 µM [15] was 100%. For the same compound, the remaining binding at 10 µM [16] was 85%, the remaining binding at 10 µM [17] was 100% and the remaining binding at 10 µM [18] was 93%. The remaining binding at 10 µM [19] was 100%, the remaining binding at 10 µM [20] was 41% and the remaining binding at 10 µM [21] was 72%. For the same compound, the remaining binding at 10 µM [22] was 89%.

With `Cc1ccc(-c2cnccc2-c2cnc(Nc3ccc(O)cc3)s2)c(Cl)c1` [CRT0105950, 4-{5-[3-(2-Chloro-4-methyl-phenyl)-pyridin-4-yl]-thiazol-2-ylamino}-phenol] the remaining binding at 10 µM [1] was 0.6%, the remaining binding at 10 µM [2] was 0.95% and the remaining binding at 10 µM [3] was 71%. The remaining binding at 10 µM [4] was 72%, the remaining binding at 10 µM [5] was 19% and the remaining binding at 10 µM [6] was 74%. The remaining binding at 10 µM [7] was 36%, the remaining binding at 10 µM [8] was 62% and the remaining binding at 10 µM [9] was 37%. It also gave a remaining binding at 10 µM [10] of 0.1%, a remaining binding at 10 µM [11] of 97% and a remaining binding at 10 µM [12] of 41%. It also gave a remaining binding at 10 µM [13] of 3.7%, a remaining binding at 10 µM [14] of 16% and a remaining binding at 10 µM [15] of 17%. For the same compound, the remaining binding at 10 µM [16] was 72%, the remaining binding at 10 µM [17] was 97% and the remaining binding at 10 µM [18] was 78%. It also gave a remaining binding at 10 µM [19] of 79%, a remaining binding at 10 µM [20] of 0.55% and a remaining binding at 10 µM [21] of 25%. It also gave a remaining binding at 10 µM [22] of 46%.
